Reference: US10259810B2, “N-sulfonylated pyrazolo[3,4-b]pyridin-6-carboxamides and method of use” (AbbVie S.à.r.l., priority 2015, dated 2019)

Legend:
ΔF508-CFTR [1] = target: T1, ΔF508-CFTR (Homo sapiens, UniProt P13569, DEL508-508); test: CFTR cell surface levels using HRP-tagged ΔF508-CFTR expressing CFBE cells, in the presence of a co-corrector; assay type: cell-based; conditions: HRP-tagged ΔF508-CFTR CFBE cells, in the presence of 3 μM co-corrector; for EC50: read-out: EC50
T1 construct: host or cells: CFBE41o-, doxycycline-inducible
Summary of the method: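 Chemiluminescent read-out of surface HRP (15 min, dark) after PBS washes. Activity is normalized as 100×(sample−DMSO)/(3 μM co-corrector alone−DMSO).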

ΔF508-CFTR [2] = target: T1, ΔF508-CFTR; test: CFTR cell surface levels using HRP-tagged ΔF508-CFTR expressing CFBE cells, intrinsic corrector capacity; assay type: cell-based; parameters: % Activation: concentration or dose not given beside the values; conditions: HRP-tagged ΔF508-CFTR expressing CFBE41o- cells, compound alone (intrinsic corrector capacity), 20 hours at 33° C.; for EC50: read-out: EC50
Summary of the method: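 Surface ΔF508-CFTR was measured as HRP chemiluminescence from an extracellular-loop-4 tag, expressed as percent activity between DMSO and a […] corrector control.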

T1 sequence (P13569 with tags, fused parts or gaps DEL508-508): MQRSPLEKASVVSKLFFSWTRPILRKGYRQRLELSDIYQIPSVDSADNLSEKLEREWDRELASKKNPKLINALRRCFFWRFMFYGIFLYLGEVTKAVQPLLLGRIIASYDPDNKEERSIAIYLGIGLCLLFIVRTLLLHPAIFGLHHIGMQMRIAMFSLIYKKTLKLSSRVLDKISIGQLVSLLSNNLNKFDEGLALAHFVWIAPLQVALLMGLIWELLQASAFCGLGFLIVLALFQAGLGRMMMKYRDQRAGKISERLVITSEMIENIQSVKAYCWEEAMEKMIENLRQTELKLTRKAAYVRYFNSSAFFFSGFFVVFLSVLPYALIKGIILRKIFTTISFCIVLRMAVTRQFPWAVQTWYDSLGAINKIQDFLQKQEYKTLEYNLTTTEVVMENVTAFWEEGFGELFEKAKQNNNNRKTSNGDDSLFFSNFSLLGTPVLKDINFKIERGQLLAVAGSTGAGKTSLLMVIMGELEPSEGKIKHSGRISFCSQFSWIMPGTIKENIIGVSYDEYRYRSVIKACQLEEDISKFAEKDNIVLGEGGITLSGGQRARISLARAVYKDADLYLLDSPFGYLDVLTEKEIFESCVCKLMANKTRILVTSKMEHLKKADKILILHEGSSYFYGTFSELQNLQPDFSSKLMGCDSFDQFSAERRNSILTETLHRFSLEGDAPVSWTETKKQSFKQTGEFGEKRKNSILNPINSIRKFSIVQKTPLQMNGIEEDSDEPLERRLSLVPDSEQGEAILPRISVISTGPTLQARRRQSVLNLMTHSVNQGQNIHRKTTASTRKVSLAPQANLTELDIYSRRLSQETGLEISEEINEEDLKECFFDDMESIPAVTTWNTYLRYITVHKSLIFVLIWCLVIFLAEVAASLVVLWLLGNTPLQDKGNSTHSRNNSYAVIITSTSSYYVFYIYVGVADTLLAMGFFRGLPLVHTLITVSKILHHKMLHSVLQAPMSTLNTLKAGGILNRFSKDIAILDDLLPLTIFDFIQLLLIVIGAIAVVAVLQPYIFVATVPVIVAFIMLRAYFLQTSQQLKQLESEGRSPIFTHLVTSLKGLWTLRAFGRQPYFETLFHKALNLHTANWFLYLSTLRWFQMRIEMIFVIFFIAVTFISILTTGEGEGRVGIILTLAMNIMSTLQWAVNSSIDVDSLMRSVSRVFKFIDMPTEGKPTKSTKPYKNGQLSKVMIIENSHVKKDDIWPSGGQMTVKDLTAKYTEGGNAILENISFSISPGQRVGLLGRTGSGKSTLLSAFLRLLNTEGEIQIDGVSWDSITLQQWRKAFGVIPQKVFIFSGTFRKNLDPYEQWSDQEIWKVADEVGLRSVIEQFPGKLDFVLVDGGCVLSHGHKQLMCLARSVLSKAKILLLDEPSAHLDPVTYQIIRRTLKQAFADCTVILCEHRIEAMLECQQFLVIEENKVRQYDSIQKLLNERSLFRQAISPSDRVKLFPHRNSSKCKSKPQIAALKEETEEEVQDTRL

| Compound | % Activation (ΔF508-CFTR [1]) [%] | EC50 (ΔF508-CFTR [1]) [nM] | % Activation (ΔF508-CFTR [2]) [%] | EC50 (ΔF508-CFTR [2]) [nM] |
| --- | --- | --- | --- | --- |
| CS(=O)(=O)NC(=O)c1cc(N2CCCC3(CC3)C2)c2c(C3CCC3)nn(-c3ccccc3)c2n1 [Compound 205, 4-(5-azaspiro[2.5]octan-5-yl)-3-cyclobutyl-N-(methanesulfonyl)-1-phenyl-1H-pyrazolo[3,4-b]pyridine-6-carboxamide] | 416.4 | 856 | 208.5 | 956 |
| COCCN(C)c1cc(C(=O)NS(C)(=O)=O)nc2c1c(C1CCC1)nn2-c1ccccc1 [Compound 206, 3-cyclobutyl-N-(methanesulfonyl)-4-[(2-methoxyethyl)(methyl)amino]-1-phenyl-1H-pyrazolo[3,4-b]pyridine-6-carboxamide] | 387.03 | 890 | 169.03 | 1400 |
| COC1CCN(c2cc(C(=O)NS(=O)(=O)C3CCN(C(=O)OCc4ccccc4)CC3)nc3c2c(C2CCC2)nn3-c2ccccc2)CC1 [Compound 208, benzyl 4-{[3-cyclobutyl-4-(4-methoxypiperidin-1-yl)-1-phenyl-1H-pyrazolo[3,4-b]pyridine-6-carbonyl]sulfamoyl}piperidine-1-carboxylate] | 419.15 | 364 | 190.55 | 402 |
| CS(=O)(=O)NC(=O)c1cc(-c2ccc(N3CCC(C#N)CC3)nc2)c2c(n1)n(-c1ccccc1)nc2[C@H]1C[C@@H](F)C1 [Compound 209, 4-[6-(4-cyanopiperidin-1-yl)pyridin-3-yl]-3-(cis-3-fluorocyclobutyl)-N-(methanesulfonyl)-1-phenyl-1H-pyrazolo[3,4-b]pyridine-6-carboxamide] | 393.6 | 231 | 247.6 | 381 |
| CS(=O)(=O)NC(=O)c1cc(-c2ccc(N3CCC(C#N)CC3)nc2)c2c(n1)n(-c1ccccc1)nc2[C@H]1C[C@H](F)C1 [Compound 210, 4-[6-(4-cyanopiperidin-1-yl)pyridin-3-yl]-3-(trans-3-fluorocyclobutyl)-N-(methanesulfonyl)-1-phenyl-1H-pyrazolo[3,4-b]pyridine-6-carboxamide] | 390.57 | 174 | 205.57 | 286 |
| CO[C@H]1CC[C@@H](Oc2cc(C(=O)NS(C)(=O)=O)nc3c2c(C2CCC2)nn3-c2ccccc2)CC1 [Compound 211, 3-cyclobutyl-N-(methanesulfonyl)-4-[(cis-4-methoxycyclohexyl)oxy]-1-phenyl-1H-pyrazolo[3,4-b]pyridine-6-carboxamide] | 288.3 | 293 | 114.4 | 608 |
| CO[C@H]1CC[C@H](Oc2cc(C(=O)NS(C)(=O)=O)nc3c2c(C2CCC2)nn3-c2ccccc2)CC1 [Compound 212, 3-cyclobutyl-N-(methanesulfonyl)-4-[(trans-4-methoxycyclohexyl)oxy]-1-phenyl-1H-pyrazolo[3,4-b]pyridine-6-carboxamide] | 290.43 | 324 | 114.63 | 621 |
| CS(=O)(=O)NC(=O)c1cc(N2CCC(COCc3ccccc3)CC2)c2c(C3CCC3)nn(-c3ccccc3)c2n1 [Compound 213, 4-{4-[(benzyloxy)methyl]piperidin-1-yl}-3-cyclobutyl-N-(methanesulfonyl)-1-phenyl-1H-pyrazolo[3,4-b]pyridine-6-carboxamide] | 469.6 | 337 | 267.5 | 546 |
| CS(=O)(=O)NC(=O)c1cc(N2CC3(CCC3)C2)c2c(C3CCC3)nn(-c3ccccc3)c2n1 [Compound 214, 4-(2-azaspiro[3.3]heptan-2-yl)-3-cyclobutyl-N-(methanesulfonyl)-1-phenyl-1H-pyrazolo[3,4-b]pyridine-6-carboxamide] | 250.55 | 384 | 103.6 | 1010 |
| CC(=O)N1CCC2CN(c3cc(C(=O)NS(C)(=O)=O)nc4c3c(C3CCC3)nn4-c3ccccc3)CCC21 (stereo not shown) [Compound 216, 4-(1-acetyloctahydro-5H-pyrrolo[3,2-c]pyridin-5-yl)-3-cyclobutyl-N-(methanesulfonyl)-1-phenyl-1H-pyrazolo[3,4-b]pyridine-6-carboxamide] | 456.1 | 300 | 275.67 | 766 |
| COC1CCN(c2cc(C(=O)NS(C)(=O)=O)nc3c2c(C(C)C)nn3-c2cccc(N3CCOCC3)n2)CC1 [Compound 217, N-(methanesulfonyl)-4-(4-methoxypiperidin-1-yl)-1-[6-(morpholin-4-yl)pyridin-2-yl]-3-(propan-2-yl)-1H-pyrazolo[3,4-b]pyridine-6-carboxamide] | 418.27 | 257 | 246.77 | 458 |
| COCC1CCN(c2cc(C(=O)NS(C)(=O)=O)nc3c2c(C(C)C)nn3C2CCCCC2)CC1 [Compound 218, 1-cyclohexyl-N-(methanesulfonyl)-4-[4-(methoxymethyl)piperidin-1-yl]-3-(propan-2-yl)-1H-pyrazolo[3,4-b]pyridine-6-carboxamide] | 476.9 | 239 | 268.37 | 390 |
| CS(=O)(=O)NC(=O)c1cc(N2CCC(CF)CC2)c2c(C3CCC3)nn(-c3ccccc3)c2n1 [Compound 220, 3-cyclobutyl-4-[4-(fluoromethyl)piperidin-1-yl]-N-(methanesulfonyl)-1-phenyl-1H-pyrazolo[3,4-b]pyridine-6-carboxamide] | 389.9 | 208 | 202.5 | 348 |
| CS(=O)(=O)NC(=O)c1cc(N2CCC3(CCCCC3)CC2)c2c(C3CCC3)nn(-c3ccccc3)c2n1 [Compound 222, 4-(3-azaspiro[5.5]undecan-3-yl)-3-cyclobutyl-N-(methanesulfonyl)-1-phenyl-1H-pyrazolo[3,4-b]pyridine-6-carboxamide] | 247.3 | 1790 | 65.685 | 1420 |
| CCS(=O)(=O)NC(=O)c1cc(-c2ccc(N3CCOCC3)cc2)c2c(C(C)C)nn(-c3ccc(F)c(F)c3)c2n1 [Compound 223, 1-(3,4-difluorophenyl)-N-(ethanesulfonyl)-4-[4-(morpholin-4-yl)phenyl]-3-(propan-2-yl)-1H-pyrazolo[3,4-b]pyridine-6-carboxamide] | 438.2 | 371 | 258.95 | 469 |
| CCS(=O)(=O)NC(=O)c1cc(-c2ccc(N(C)C3CCOCC3)nc2)c2c(C(C)C)nn(-c3cccc(F)c3)c2n1 [Compound 224, N-(ethanesulfonyl)-1-(3-fluorophenyl)-4-{6-[methyl(oxan-4-yl)amino]pyridin-3-yl}-3-(propan-2-yl)-1H-pyrazolo[3,4-b]pyridine-6-carboxamide] | 453.1 | 482 | 228.8 | 544 |
| CC(C)Oc1nn(-c2ccccc2)c2nc(C(=O)NS(=O)(=O)C3CC3)cc(-c3ccc(N4CCOCC4)cc3)c12 [Compound 225, N-(cyclopropanesulfonyl)-4-[4-(morpholin-4-yl)phenyl]-1-phenyl-3-[(propan-2-yl)oxy]-1H-pyrazolo[3,4-b]pyridine-6-carboxamide] | 427.95 | 579 | 215.35 | 456 |
| CC(C)c1nn(-c2ccnc(N3CCOCC3)c2)c2nc(C(=O)NS(C)(=O)=O)cc(-c3ccc(N4CCC(C#N)CC4)nc3)c12 [Compound 227, 4-[6-(4-cyanopiperidin-1-yl)pyridin-3-yl]-N-(methanesulfonyl)-1-[2-(morpholin-4-yl)pyridin-4-yl]-3-(propan-2-yl)-1H-pyrazolo[3,4-b]pyridine-6-carboxamide] | 378.2 | 307 | 216.8 | 449 |
| COCCS(=O)(=O)NC(=O)c1cc(-c2ccc(OC)cc2)c2c(C)nn(CC(C)C)c2n1 [Compound 231, N-(2-methoxyethanesulfonyl)-4-(4-methoxyphenyl)-3-methyl-1-(2-methylpropyl)-1H-pyrazolo[3,4-b]pyridine-6-carboxamide] | 329.9 | 518 | 162.9 | 939 |
| COCCS(=O)(=O)NC(=O)c1cc(-c2ccc(N3CCOCC3)cc2)c2c(C(C)C)nn(C3CCOC3)c2n1 (stereo not shown) [Compound 232, N-(2-methoxyethanesulfonyl)-4-[4-(morpholin-4-yl)phenyl]-1-(oxolan-3-yl)-3-(propan-2-yl)-1H-pyrazolo[3,4-b]pyridine-6-carboxamide] | 199.75 | 1730 | 71.64 | 1680 |
| COCCS(=O)(=O)NC(=O)c1cc(-c2ccc(N3CCOCC3)cc2)c2cnn(-c3ccccc3)c2n1 [Compound 233, N-(2-methoxyethanesulfonyl)-4-[4-(morpholin-4-yl)phenyl]-1-phenyl-1H-pyrazolo[3,4-b]pyridine-6-carboxamide] | 206.57 | 1930 | 58.34 | 2440 |
| COCCS(=O)(=O)NC(=O)c1cc(-c2ccc(OC)cc2)c2c(C)nn(C(C)C)c2n1 [Compound 234, N-(2-methoxyethanesulfonyl)-4-(4-methoxyphenyl)-3-methyl-1-(propan-2-yl)-1H-pyrazolo[3,4-b]pyridine-6-carboxamide] | 128.3 | > 10000 | 17.89 | > 10000 |
